Tests used:
Assay type in all cases: physicochemical
[1] = Hygroscopicity study by dynamic vapor sorption (DVS)
Procedure: 1.4. Dynamic Vapor Sorption, DVS Method
Instrument model: SMS DVS Advantage dynamic vapor sorption apparatus
Test conditions: The sample (10 to 15 mg) is weighed and placed in a DVS sample pan for testing.
The detailed DVS parameters are as follows:
Equilibration: dm/dt=0.01%/min (The shortest time: 10 min, and the longest time: 180 min)
Drying: Dried for 120 min at 0% RH
RH (%) test gradient: 10%
Range of RH (%) test gradient: 0%-90%-0%
The classification of hygroscopicity evaluation is as follows:
10-15 mg of the crystal form A and the crystal form C of the compound of formula (II) were weighed and placed into a DVS sample pan for testing.

[2] = Water activity assay (stability of the crystal form in water with different activities); conditions: methanol/water, stirred two days, XRPD
Procedure: The stability of the crystal form in water with different activities was determined.
About 30 mg of the crystal form A of the compound of formula (II) was weighed and placed in a 1.5 mL liquid phase vial. A magnetic bar was added, and an appropriate amount of water activity agent in a system of methanol and water was pipetted into the liquid phase vial. The suspension sample was mixed well and then placed on a magnetic stirrer (25° C., 700 rpm). After stirring for two days, the wet sample was determined by XRPD.

[3] = Solubility assay in media with different pHs; conditions: for Solubility (24 hours) / Solubility (2 hours): 37° C.; for Final pH: filtrate of saturated solution
Procedure: (§1) 9 parts of 4 mg of the crystal form A of the compound of formula (II) were weighed and added to a 1.5 mL sample bottle, respectively, and then 1 mL of different media (0.1 mol/L HCl, 0.01 mol/L HCl, pH3.8 buffer solution, pH4.5 buffer solution, pH5.5 buffer solution, pH6.0 buffer solution, pH6.8 buffer solution, pH7.4 buffer solution, and water) were added, respectively. Based on the dissolution situation, the raw material compound was continuously added until a saturated solution was formed. The magnetic bar was added to the above suspension, and the suspension was placed on a magnetic stirrer (37° C., protected from light) and stirred. […] The upper layer of the sample was filtered with a filter membrane, and the pH value of the filtrate was determined. The saturated solubility of the compound was determined by HPLC.
as §1, with “C” for “A”

[4] = Stability assay under illumination, high humidity, high temperature and acceleration (related substances and crystal form); design: Total impurity: unit not given here; conditions: for Change of crystal form: 17 days
Procedure: The stability of crystal form of the crystal form A and the crystal form C of the compound of formula (II) under the conditions of illumination, high humidity (92.5% RH), high temperature (60° C.) and acceleration (40° C./75% RH) was investigated.
Illumination test chamber, model: SHH-100GD-2, conditions: 5000±500 lux (visible light) and 90 mw/cm^2 (ultraviolet).
Electrothermal blowing dry box, model: GZX-9140MBE, conditions: 60° C.
Constant temperature and humidity chamber, model: LDS-800Y, conditions: 40° C./75% RH.
Constant temperature and humidity chamber, model: SHH-250SD, conditions: 25° C., 92.5% RH.
An appropriate amount of the crystal form A of the compound of formula (II) was weighed and placed in a dry and clean weighing bottle. The sample was spread into a thin layer, and fully exposed to assay conditions (60° C., 92.5% RH, illumination) and acceleration conditions (40° C./75% RH). After 17 days, the compound was taken out and determined for related substances and crystal form. […]

ΔW (weight increase by moisture absorption) ([1]; 25° C. and 80% RH): 1.329%
Classification of hygroscopicity ([1]; 25° C., 80% RH): slightly hygroscopic
Crystal form change in water activity assay ([2]; water activity 0.1 and 0.3, 25° C.): not changed
Crystal form change in water activity assay ([2]; water activity greater than 0.3, 25° C.): changed to the crystal form C
Solubility (24 hours) ([3]; 0.01 mol/L HCl): 7941 µg/mL
Solubility (conclusion) ([3]; buffer solutions below pH 6.8 and purified water): high solubility
Final pH ([3]; 0.01 mol/L HCl): 3.59
Final pH ([3]; pH 3.8 buffer solution): 3.988
Final pH ([3]; pH 4.5 buffer solution): 4.531
Final pH ([3]; pH 5.5 buffer solution): 5.499
Final pH ([3]; pH 6.0 buffer solution): 5.900
Final pH ([3]; pH 6.8 buffer solution): 6.588
Final pH ([3]; pH 7.4 buffer solution): 7.096
Final pH ([3]; water): 5.296
Evaluation of dissolution property ([3]; merged cell: 0.1 mol/L HCl, 0.01 mol/L HCl, pH 3.8, 4.5, 5.5, 6.0 buffer solutions and water): High solubility
Evaluation of dissolution property ([3]; merged cell: pH 6.8 and pH 7.4 buffer solutions): Low solubility
Solubility (2 hours) ([3]; pH 3.8 buffer solution): 3749 µg/mL
Solubility (24 hours) ([3]; pH 3.8 buffer solution): 3645 µg/mL
Solubility (2 hours) ([3]; pH 4.5 buffer solution): 3824 µg/mL
Solubility (24 hours) ([3]; pH 4.5 buffer solution): 3141 µg/mL
Solubility (2 hours) ([3]; pH 5.5 buffer solution): 3571 µg/mL
Solubility (2 hours) ([3]; pH 6.0 buffer solution): 3785 µg/mL
Solubility (24 hours) ([3]; pH 6.0 buffer solution): 3638 µg/mL
Solubility (2 hours) ([3]; water): 2720 µg/mL
Stability compared with the crystal form D of the maleate of the compound of formula (I) [4]: better
Related substance at relative retention time 0.24 ([4]; 40° C. - 75% RH - 17 days): 0.03
Related substance at relative retention time 0.67 ([4]; 40° C. - 75% RH - 17 days): 0.16
Related substance at relative retention time 0.88 ([4]; 40° C. - 75% RH - 17 days): 0.04
Related substance at relative retention time 0.92 ([4]; 40° C. - 75% RH - 17 days): 0.04
Related substance at relative retention time 1.24 ([4]; 40° C. - 75% RH - 17 days): 0.15
Related substance at relative retention time 1.30 ([4]; 40° C. - 75% RH - 17 days): 0.18
Related substance at relative retention time 1.56 ([4]; 40° C. - 75% RH - 17 days): 0.04
Related substance at relative retention time 1.76 ([4]; 40° C. - 75% RH - 17 days): 0.04
Total impurity ([4]; 40° C. - 75% RH - 17 days): 0.66
Related substance at relative retention time 0.24 ([4]; 60° C. - 17 days): 0.03
Related substance at relative retention time 0.67 ([4]; 60° C. - 17 days): 0.91
Related substance at relative retention time 0.88 ([4]; 60° C. - 17 days): 0.05
Related substance at relative retention time 0.92 ([4]; 60° C. - 17 days): 0.03
Related substance at relative retention time 1.24 ([4]; 60° C. - 17 days): 0.15
Related substance at relative retention time 1.30 ([4]; 60° C. - 17 days): 0.16
Related substance at relative retention time 1.56 ([4]; 60° C. - 17 days): 0.04
Related substance at relative retention time 1.76 ([4]; 60° C. - 17 days): 0.07
Total impurity ([4]; 60° C. - 17 days): 1.44
Related substance at relative retention time 0.24 ([4]; 92.5% RH - 17 days): 0.03
Related substance at relative retention time 0.67 ([4]; 92.5% RH - 17 days): 0.05
Related substance at relative retention time 0.88 ([4]; 92.5% RH - 17 days): 0.04
Related substance at relative retention time 0.92 ([4]; 92.5% RH - 17 days): 0.04
Related substance at relative retention time 1.24 ([4]; 92.5% RH - 17 days): 0.14
Related substance at relative retention time 1.30 ([4]; 92.5% RH - 17 days): 0.18
Related substance at relative retention time 1.56 ([4]; 92.5% RH - 17 days): 0.04
Related substance at relative retention time 1.76 ([4]; 92.5% RH - 17 days): 0.02
Total impurity ([4]; 92.5% RH - 17 days): 0.54
Related substance at relative retention time 0.24 ([4]; Illumination - 17 days): 0.03
Related substance at relative retention time 0.67 ([4]; Illumination - 17 days): 0.07
Related substance at relative retention time 0.88 ([4]; Illumination - 17 days): 0.04
Related substance at relative retention time 0.92 ([4]; Illumination - 17 days): 0.05
Related substance at relative retention time 1.24 ([4]; Illumination - 17 days): 0.13
Related substance at relative retention time 1.30 ([4]; Illumination - 17 days): 0.17
Related substance at relative retention time 1.56 ([4]; Illumination - 17 days): 0.04
Total impurity ([4]; Illumination - 17 days): 0.46
Related substance at relative retention time 0.24 ([4]; Initial sample): 0.03
Related substance at relative retention time 0.67 ([4]; Initial sample): 0.05
Related substance at relative retention time 0.88 ([4]; Initial sample): 0.03
Related substance at relative retention time 1.24 ([4]; Initial sample): 0.15
Related substance at relative retention time 1.30 ([4]; Initial sample): 0.18
Related substance at relative retention time 1.56 ([4]; Initial sample): 0.04
Total impurity ([4]; Initial sample): 0.53
Change of crystal form ([4]; acceleration (40° C./75% RH)): not changed
Change of crystal form ([4]; high humidity (92.5% RH)): changed
Change of crystal form ([4]; high temperature (60° C.)): not changed
Change of crystal form ([4]; illumination): not changed
SMILES: COc1cc2ncnc(Nc3cccc(Cl)c3F)c2cc1N1CC2(CN(C)C2)OC1=O.Cc1ccc(S(=O)(=O)O)cc1 [crystal form A of the compound of formula (II)]
Formation of degradation impurity (conclusion) ([4]; illumination, high temperature, high humidity, acceleration): produces a degradation impurity only under the condition of high temperature

Reference: patent US20220194959A1, “CRYSTAL FORM OF EGFR INHIBITOR AND PREPARATION METHOD THEREOF” (MEDSHINE DISCOVERY INC., priority 2019, published 2022)
